Experiments:
KRASG12D = target: T1, KRASG12D (Homo sapiens, UniProt P01116, G12D); test: Bio-Biochem-PPI-HTRF Ras-SOS1 interaction assay (KRAS G12D); type: biochemical; settings: 5 nM
T1 construct: made in house; host or cells: E. coli BL21 (DE3)
Method in brief: (§1)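 GST-tagged K-Ras (wt or G12D) with anti-GST-Eu(K) donor was mixed with His-hSOS1 and anti-6His-XL665 acceptor in HEPES pH 7.4/NaCl/DTT/BSA/Igepal buffer, with compound in duplicate from 10 μM down to 0.01 μM. After about 10 min or longer, HTRF 665/620 nm ratio gave IC50.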

KRASwt = target: T2, KRASwt (Homo sapiens, UniProt P01116); test: Bio-Biochem-PPI-HTRF Ras-SOS1 interaction assay (KRAS wt); type: biochemical; settings: 5 nM
T2 construct: made in house; host or cells: E. coli BL21 (DE3)
T2 sequence (P01116 1-188 isoform P01116-2): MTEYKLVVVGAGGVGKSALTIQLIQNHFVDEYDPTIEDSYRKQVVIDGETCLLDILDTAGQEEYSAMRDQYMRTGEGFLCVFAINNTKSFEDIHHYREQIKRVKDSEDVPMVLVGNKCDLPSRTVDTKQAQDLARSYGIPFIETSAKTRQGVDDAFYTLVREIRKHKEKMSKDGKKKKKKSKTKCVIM
Method in brief: as §1

T1 sequence (P01116 1-188 isoform P01116-2 G12D): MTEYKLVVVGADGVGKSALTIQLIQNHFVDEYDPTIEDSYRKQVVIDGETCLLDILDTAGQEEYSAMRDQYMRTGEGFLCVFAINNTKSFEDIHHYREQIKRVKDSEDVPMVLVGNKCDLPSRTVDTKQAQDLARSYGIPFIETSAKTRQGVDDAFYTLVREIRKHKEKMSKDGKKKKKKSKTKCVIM

Row | Compound | IC50 (KRASG12D) [µM] | IC50 (KRASwt) [µM]
1 | N#Cc1c(N)sc2c(F)ccc(-c3c(Cl)cc4c(N5CCC(O)CC6(CN(C(=O)[C@@H]7CC7(F)F)C6)C5)nc(OC[C@@]56CCCN5C[C@H](F)C6)nc4c3F)c12 (stereo partly drawn) [compound 249, 2-amino-4-(6-chloro-4-(2-((S)-2,2-difluorocyclopropane-1-carbonyl)-9-hydroxy-2,6-diazaspiro[3.6]decan-6-yl)-8-fluoro-2-(((2R,7aS)-2-fluorotetrahydro-1H-pyrrolizin-7a(5H)-yl)methoxy)quinazolin-7-yl)-7-fluorobenzo[b]thiophene-3-carbonitrile] | < 5 | < 5
2 | CC1(C)CN(c2nc(OC[C@@]34CCCN3C[C@H](F)C4)nc3c(F)c(-c4ccc(F)c5sc(N)c(C#N)c45)c(Cl)cc23)CC2(CNC2)O1 [compound 101, 2-amino-4-(6-chloro-4-(6,6-dimethyl-5-oxa-2,8-diazaspiro[3.5]nonan-8-yl)-8-fluoro-2-(((2R,7aS)-2-fluorotetrahydro-1H-pyrrolizin-7a(5H)-yl)methoxy)quinazolin-7-yl)-7-fluorobenzo[b]thiophene-3-carbonitrile] | < 5 | < 5
3 | C#Cc1c(F)ccc2cc(O)cc(-c3ncc4c(N5CCOCC6(CN(C(=O)[C@@H]7CC7(F)F)C6)C5)nc(OC[C@@]56CCCN5C[C@H](F)C6)nc4c3F)c12 [compound 301, ((S)-2,2-difluorocyclopropyl) (9-(7-(8-ethynyl-7-fluoro-3-hydroxynaphthalen-1-yl)-8-fluoro-2-(((2R,7aS)-2-fluorotetrahydro-1H-pyrrolizin-7a(5H)-yl)methoxy)pyrido[4,3-d]pyrimidin-4-yl)-6-oxa-2,9-diazaspiro[3.6]decan-2-yl)methanone] | < 5 | < 5
4 | CN1CCC[C@H]1COc1nc(N2CCCC3(CNC3)C2)c2cc(Cl)c(-c3cccc4sc(N)nc34)c(F)c2n1 [compound 172, 4-(6-chloro-8-fluoro-2-(((S)-1-methylpyrrolidin-2-yl)methoxy)-4-(2,6-diazaspiro[3.5]nonan-6-yl)quinazolin-7-yl)benzo[d]thiazol-2-amine] | < 5 | < 5
5 | N#Cc1c(N)sc2c(F)ccc(-c3c(Cl)cc4c(N5CCCCC6(CN(C(=O)C7CC8CCC7O8)C6)C5)nc(OC[C@@]56CCCN5C[C@H](F)C6)nc4c3F)c12 (stereo partly drawn) [compound 303, 4-(4-(2-(7-oxabicyclo[2.2.1]heptane-2-carbonyl)-2,6-diazaspiro[3.6]decan-6-yl)-6-chloro-8-fluoro-2-(((2R,7aS)-2-fluorotetrahydro-1H-pyrrolizin-7a(5H)-yl)methoxy)quinazolin-7-yl)-2-amino-7-fluorobenzo[b]thiophene-3-carbonitrile] | < 5 | < 5
6 | N#Cc1c(N)sc2c(F)ccc(-c3c(Cl)cc4c(N5CCCC6(CN(C(=O)[C@@H]7C[C@H]7C#N)C6)C5)nc(OC[C@@]56CCCN5C[C@H](F)C6)nc4c3F)c12 [compound 104, 2-amino-4-(6-chloro-4-(2-((1R,2R)-2-cyanocyclopropane-1-carbonyl)-2,6-diazaspiro[3.5]nonan-6-yl)-8-fluoro-2-(((2R,7aS)-2-fluorotetrahydro-1H-pyrrolizin-7a(5H)-yl)methoxy)quinazolin-7-yl)-7-fluorobenzo[b]thiophene-3-carbonitrile] | < 5 | < 5
7 | N#Cc1c(N)sc2c(F)ccc(-c3c(Cl)cc4c(N5CCN(CC6CC6)C6(CN(C(=O)C(F)F)C6)C5)nc(OC[C@@]56CCCN5C[C@H](F)C6)nc4c3F)c12 [compound 346, 2-amino-4-(6-chloro-4-(5-(cyclopropylmethyl)-2-(2,2-difluoroacetyl)-2,5,8-triazaspiro[3.5]nonan-8-yl)-8-fluoro-2-(((2R,7aS)-2-fluorotetrahydro-1H-pyrrolizin-7a(5H)-yl)methoxy)quinazolin-7-yl)-7-fluorobenzo[b]thiophene-3-carbonitrile] | < 5 | < 5
8 | N#Cc1c(N)sc2c(F)ccc(-c3c(Cl)cc4c(N5CCCC6(CN(C(=O)C(F)F)C6)C5)nc(OC[C@@]56CCCN5C[C@H](F)C6)nc4c3F)c12 [compound 125, 2-amino-4-(6-chloro-4-(2-(2,2-difluoroacetyl)-2,6-diazaspiro[3.5]nonan-6-yl)-8-fluoro-2-(((2R,7aS)-2-fluorotetrahydro-1H-pyrrolizin-7a(5H)-yl)methoxy)quinazolin-7-yl)-7-fluorobenzo[b]thiophene-3-carbonitrile] | < 5 | < 5
9 | CN(C)C/C=C/C(=O)N1CC2(CCCCN(c3nc(OC[C@@]45CCCN4C[C@H](F)C5)nc4c(F)c(-c5ccc(F)c6sc(N)c(C#N)c56)c(Cl)cc34)C2)C1 [compound 188, 2-amino-4-(6-chloro-4-(2-((E)-4-(dimethylamino)but-2-enoyl)-2,6-diazaspiro[3.6]decan-6-yl)-8-fluoro-2-(((2R,7aS)-2-fluorotetrahydro-1H-pyrrolizin-7a(5H)-yl)methoxy)quinazolin-7-yl)-7-fluorobenzo[b]thiophene-3-carbonitrile] | < 5 | < 5
10 | COC1CN(C(=O)N2CC3(CCCCN(c4nc(OC[C@@]56CCCN5C[C@H](F)C6)nc5c(F)c(-c6ccc(F)c7sc(N)c(C#N)c67)c(Cl)cc45)C3)C2)C1 [compound 306, 2-amino-4-(6-chloro-8-fluoro-2-(((2R,7aS)-2-fluorotetrahydro-1H-pyrrolizin-7a(5H)-yl)methoxy)-4-(2-(3-methoxyazetidine-1-carbonyl)-2,6-diazaspiro[3.6]decan-6-yl)quinazolin-7-yl)-7-fluorobenzo[b]thiophene-3-carbonitrile] | < 5 | < 5
11 | CC(C)NC(=O)N1CC2(CC(Nc3nc(OCC45CCCN4C[C@H](F)C5)nc4c(F)c(-c5ccc(F)c6sc(N)c(C#N)c56)c(Cl)cc34)C2)C1 (stereo partly drawn) [compound 151, 6-((7-(2-amino-3-cyano-7-fluorobenzo[b]thiophen-4-yl)-6-chloro-8-fluoro-2-(((2R)-2-fluorotetrahydro-1H-pyrrolizin-7a(5H)-yl)methoxy)quinazolin-4-yl)amino)-N-isopropyl-2-azaspiro[3.3]heptane-2-carboxamide] | < 5 | < 5

Source: patent US20240109918A1, “HETEROCYCLIC COMPOUNDS AND USES THEREOF” (Kumquat Biosciences Inc., priority 2022, published 2024)
